Assay results: patent publication US20130012432A1, “Peptides for Treatment of Obesity” (Novo Nordisk A/S, priority 2010, published 2013)
Converted amounts (≈) assume the structure as drawn. Positions of bridges follow the written chain, without caps; N, C: chain ends. Non-standard residues stand in square brackets, D forms with d. Residues, ends and D or L forms follow the SMILES beside them. Groups on a side chain read outwards from the residue. *: point of attachment. Palmitoyl(16-(5-tetrazolyl)) = O=C(CCCCCCCCCCCCCCCc1nnn[nH]1)*; Lys(CH2CO2H)2 = N[C@@H](CCCCN(CC(=O)O)CC(=O)O)C(=O)O; C17 diacid = O=C(O)CCCCCCCCCCCCCCCC(=O)*; C16 diacid = O=C(O)CCCCCCCCCCCCCCC(=O)*; hCys = N[C@@H](CCS)C(=O)O; Orn = NCCC[C@H](N)C(=O)O; Dab = NCC[C@H](N)C(=O)O; Dap = NC[C@H](N)C(=O)O; AEEA = NCCOCCOCC(=O)O

Key:
[1] = target: T1, human GLP-1 receptor (Homo sapiens, UniProt P43220); assay: Assay (XI) GLP-1 activity assay, stimulation of cAMP formation; type: biochemical; details: membranes of BHK467-12A cells expressing human GLP-1 receptor
T1 construct: expressed in transfected cells; purified plasma membranes
T1 sequence (P43220 24-463): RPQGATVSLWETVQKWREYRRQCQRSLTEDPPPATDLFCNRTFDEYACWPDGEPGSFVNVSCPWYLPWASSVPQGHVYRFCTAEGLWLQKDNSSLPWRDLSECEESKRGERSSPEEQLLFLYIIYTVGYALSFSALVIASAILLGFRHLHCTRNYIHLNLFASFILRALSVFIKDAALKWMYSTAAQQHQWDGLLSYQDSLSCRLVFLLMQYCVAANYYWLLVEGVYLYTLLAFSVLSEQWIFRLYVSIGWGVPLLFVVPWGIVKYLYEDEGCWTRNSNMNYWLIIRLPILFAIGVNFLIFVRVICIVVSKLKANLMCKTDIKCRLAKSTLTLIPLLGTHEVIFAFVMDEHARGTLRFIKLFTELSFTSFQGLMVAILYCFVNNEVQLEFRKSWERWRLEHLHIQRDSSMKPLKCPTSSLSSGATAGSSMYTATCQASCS
Text: The capture of cAMP is achieved by using a specific antibody conjugated to acceptor beads.

[2] = physchem
Method: From a stock solution in vehicle, either H2O or 10 mM phosphate, containing 1 mg (as weighed) compound per ml, 8-11 aliquots are withdrawn and pH-adjusted individually with HCl/NaOH, to cover the whole pH range.

[3] = target: human MC4 receptor (Homo sapiens, UniProt P32245); assay: biochemical
human MC4 receptor, sequence (P32245 whole entry): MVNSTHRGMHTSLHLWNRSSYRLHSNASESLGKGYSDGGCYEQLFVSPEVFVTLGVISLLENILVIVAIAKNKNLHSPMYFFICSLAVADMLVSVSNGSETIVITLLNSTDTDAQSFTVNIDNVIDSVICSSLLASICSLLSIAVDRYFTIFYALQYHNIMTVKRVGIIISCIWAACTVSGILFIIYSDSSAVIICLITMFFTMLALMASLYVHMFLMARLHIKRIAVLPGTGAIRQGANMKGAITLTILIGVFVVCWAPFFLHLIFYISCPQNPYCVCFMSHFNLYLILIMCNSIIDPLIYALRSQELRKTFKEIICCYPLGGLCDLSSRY
Method: Assay (V)—Melanocortin Receptor 4 (MC4) Binding Assay
In Vitro ^125NDP-α-MSH Binding to Recombinant BHK Cells Expressing Human MC4 Receptor (Filtration Assay).
The assay was performed in 5 ml minisorb vials (Sarstedt No. 55.526) or in 96-well filter-plates (Millipore MADVN 6550), and using BHK cells expressing the human MC4 receptor using BHK cells stably expressing the human MC4 receptor. The membranes were prepared from frozen or fresh cells that were homogenized in 20 mM HEPES pH 7.1, 5 mM MgCl2 and 1 mg/ml bacitracin and centrifuged at 15000 rpm at 4° C., 10 min in a Sorvall RC 5B plus, SS-34 rotor. The supernatant was discarded, and the pellets were re-suspended in buffer, homogenized and centrifuged two more times. The final pellets were resuspended in the buffer mentioned above, and the protein concentration was measured and adjusted with buffer to 14 to 17 mg/ml and the membrane preparation were kept at −80° C. until assay. The assay was run directly on a dilution of this cell membrane suspension, without any further preparation. The BHK cell membranes are kept at −80° C. until assay, and the assay is run directly on a dilution of this cell membrane suspension, without further preparation. The suspension is diluted to give maximally 10% specific binding, i.e. to approx. 50-100 fold dilution. The assay was performed in a total volume of 200 μl: 50 μl of cell suspension, 50 μl of ^125NDP-α-MSH (≈79 pM in final concentration), 50 μl of test compound and 50 μl binding buffer (pH 7) mixed and incubated for 2 h at 25° C. [binding buffer: 25 mM HEPES, pH 7.0, 1 mM CaCl2, 1 mM MgSO4, 1 mM EGTA, 0.02% Bacitracin, 0.005% Tween™ 20 and 0.1% HSA or, alternatively, 0.1% ovalbumin (Sigma; catalogue No. A-5503)]. Test compounds were dissolved in DMSO and diluted in binding buffer. Radiolabelled ligand and membranes were diluted in binding buffer. The incubation was stopped by dilution with 2×100 μl ice-cold 0.9% NaCl. The radioactivity retained on the filters was counted using a Cobra II auto gamma counter.
The data were analysed by non-linear regression analysis of binding curves, using the Windows™ program GraphPad™ Prism (GraphPad Software, USA).

[4] = target: MC1 receptor (Homo sapiens, UniProt Q01726); assay: biochemical
MC1 receptor, sequence (Q01726 whole entry): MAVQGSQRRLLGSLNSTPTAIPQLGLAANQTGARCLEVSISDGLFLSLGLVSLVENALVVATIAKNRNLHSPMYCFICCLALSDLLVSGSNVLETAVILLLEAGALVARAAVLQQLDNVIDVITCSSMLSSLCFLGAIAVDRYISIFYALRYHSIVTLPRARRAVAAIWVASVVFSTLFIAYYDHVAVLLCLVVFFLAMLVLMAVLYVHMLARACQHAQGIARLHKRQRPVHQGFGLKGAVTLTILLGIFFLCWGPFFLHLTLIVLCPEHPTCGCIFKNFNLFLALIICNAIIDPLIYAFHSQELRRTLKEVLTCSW
In short: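 Radioligand competition on membranes (25 μg/ml) of BHK cells stably expressing MC1, with 22 pM final 125I-NDP-α-MSH in 25 mM HEPES pH 7.4, Ca/Mg, EDTA, 0.1% HSA (or ovalbumin), 0.005% Tween 20. Incubated 90 min at 30 °C, filtered over PEI-treated GF/B; curves fitted by non-linear regression.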

Molecule	solubility ([2]; pH 6.1, Solubility Conc.) [µM]	solubility ([2]; pH 6.6, Solubility Conc.) [µM]	solubility ([2]; pH 6.9, Solubility Conc.) [µM]	solubility ([2]; pH 7.4, Solubility Conc.) [µM]	solubility ([2]; pH 7.7, Solubility Conc.) [µM]	solubility ([2]; pH 8, Solubility Conc.) [µM]	Ki [3] [nM]	Ki [4] [nM]	solubility ([2]; pH 7.3, Solubility Conc.) [µM]	solubility ([2]; pH 7.6, Solubility Conc.) [µM]	solubility ([2]; pH 7.8, Solubility Conc.) [µM]	further results
exendin-4(7-45) [SEQ ID NO: 4]	–	–	–	–	–	–	–	–	–	–	–	EC50 relative to that of compound G1 [1]: about 0.3 times
CC(=O)N[C@H]1CCCNC(=O)CC[C@@H](C(=O)N2CCC[C@H]2C(=O)N[C@@H](CO)C(=O)N[C@@H](CO)C(=O)N[C@@H](CO)C(=O)N[C@@H](CCC(=O)O)C(=O)N[C@@H](CCC(=O)O)C(=O)N[C@@H](CO)C(=O)N[C@@H](CO)C(=O)N[C@@H](CCCCNC(=O)COCCOCCNC(=O)CCCCCCCCCCCCCCCC(=O)O)C(N)=O)NC(=O)[C@H](Cc2c[nH]c3ccccc23)NC(=O)[C@H](CCCNC(=N)N)NC(=O)[C@@H](Cc2ccccc2)NC(=O)[C@H](Cc2c[nH]cn2)NC1=O [Example 39] (Ac-[Orn]H[dF]RWEPSSSEESSK([AEEA-C17 diacid])-NH2; lactam 1-6)	272 (≈ 614 µg/mL)	403 (≈ 910 µg/mL)	397 (≈ 896 µg/mL)	448 (≈ 1010 µg/mL)	426 (≈ 962 µg/mL)	397 (≈ 896 µg/mL)	25	> 10000	–	–	–	solubility ([2]; pH 7.1, Solubility Conc.): 419 µM (≈ 946 µg/mL); solubility ([2]; pH 8.3, Solubility Conc.): 445 µM (≈ 1000 µg/mL)
CC(=O)N[C@H]1CCCCNC(=O)C[C@@H](C(=O)N2CCC[C@H]2C(=O)N2CCC[C@H]2C(=O)N[C@@H](Cc2c[nH]cn2)C(=O)N[C@@H](CCC(=O)O)C(=O)N[C@@H](CCCCN(CC(=O)O)CC(=O)O)C(=O)N[C@@H](CCCCNC(=O)COCCOCCNC(=O)CCCCCCCCCCCCCCCC(=O)O)C(N)=O)NC(=O)[C@H](Cc2c[nH]c3ccccc23)NC(=O)[C@H](CCCNC(=N)N)NC(=O)[C@@H](Cc2ccccc2)NC(=O)[C@H](Cc2c[nH]cn2)NC1=O [Example 44, Ac-c[Lys-His-D-Phe-Arg-Trp-Asp]-Pro-Pro-His-Glu-Lys(biscarboxymethyl)-Lys({2-[2-(16-carboxyhexadecanoylamino)ethoxy]ethoxy}acetyl)-NH2] (Ac-KH[dF]RWDPPHE[Lys(CH2CO2H)2]K([AEEA-C17 diacid])-NH2; lactam 1-6)	–	–	–	–	–	408 (≈ 886 µg/mL)	17	> 10000	412 (≈ 895 µg/mL)	407 (≈ 884 µg/mL)	429 (≈ 932 µg/mL)	solubility ([2]; pH 6.5, Solubility Conc.): 227 µM (≈ 493 µg/mL); solubility ([2]; pH 6.7, Solubility Conc.): 364 µM (≈ 790 µg/mL); solubility ([2]; pH 6.8, Solubility Conc.): 407 µM (≈ 884 µg/mL); solubility ([2]; pH 7, Solubility Conc.): 430 µM (≈ 934 µg/mL); solubility ([2]; pH 8.2, Solubility Conc.): 430 µM (≈ 934 µg/mL)
CC(=O)N[C@H]1CCCCNC(=O)C[C@@H](C(=O)N2CCC[C@H]2C(=O)N[C@@H](CO)C(=O)N[C@@H](Cc2c[nH]cn2)C(=O)N[C@@H](CCC(=O)O)C(=O)N[C@@H](CCCCN(CC(=O)O)CC(=O)O)C(=O)N[C@@H](CCCCNC(=O)COCCOCCNC(=O)CCCCCCCCCCCCCCCC(=O)O)C(N)=O)NC(=O)[C@H](Cc2c[nH]c3ccccc23)NC(=O)[C@H](CCCNC(=N)N)NC(=O)[C@@H](Cc2ccccc2)NC(=O)[C@H](Cc2c[nH]cn2)NC1=O [Example 49, Ac-c[Lys-His-D-Phe-Arg-Trp-Asp]-Pro-Ser-His-Glu-Lys(biscarboxymethyl)-Lys({2-[2-(16-carboxyhexadecanoylamino)ethoxy]ethoxy}acetyl)-NH2] (Ac-KH[dF]RWDPSHE[Lys(CH2CO2H)2]K([AEEA-C17 diacid])-NH2; lactam 1-6)	–	423 (≈ 914 µg/mL)	–	–	439 (≈ 949 µg/mL)	410 (≈ 886 µg/mL)	25	> 10000	460 (≈ 994 µg/mL)	–	456 (≈ 986 µg/mL)	solubility ([2]; pH 6.5, Solubility Conc.): 248 µM (≈ 536 µg/mL); solubility ([2]; pH 6.8, Solubility Conc.): 427 µM (≈ 923 µg/mL); solubility ([2]; pH 7, Solubility Conc.): 462 µM (≈ 999 µg/mL); solubility ([2]; pH 8.2, Solubility Conc.): 446 µM (≈ 964 µg/mL)
CC(=O)N[C@H]1CCSSC[C@@H](C(=O)N2CCC[C@H]2C(=O)N2CCC[C@H]2C(=O)N[C@@H](CCCCN)C(=O)N[C@@H](CCC(=O)O)C(=O)N[C@@H](CCCCN(CC(=O)O)CC(=O)O)C(=O)N[C@@H](CCCCNC(=O)COCCOCCNC(=O)CCCCCCCCCCCCCCC(=O)O)C(N)=O)NC(=O)[C@H](Cc2c[nH]c3ccccc23)NC(=O)[C@H](CCCNC(=N)N)NC(=O)[C@@H](Cc2ccccc2)NC(=O)[C@H](Cc2c[nH]cn2)NC1=O [Example 5, Ac-c[homoCys-His-D-Phe-Arg-Trp-Cys]-Pro-Pro-Lys-Glu-Lys(biscarboxymethyl)-Lys({2-[2-(15-carboxypentadecanoylamino)ethoxy]ethoxy}acetyl)-NH2] (Ac-[hCys]H[dF]RWCPPKE[Lys(CH2CO2H)2]K([AEEA-C16 diacid])-NH2; disulfide 1-6)	200 (≈ 428 µg/mL)	–	–	–	498 (≈ 1070 µg/mL)	–	17	> 10000	496 (≈ 1060 µg/mL)	–	509 (≈ 1090 µg/mL)	solubility ([2]; pH 3.8, Solubility Conc.): 486 µM (≈ 1040 µg/mL); solubility ([2]; pH 4.6, Solubility Conc.): 452 µM (≈ 968 µg/mL); solubility ([2]; pH 4.9, Solubility Conc.): 233 µM (≈ 499 µg/mL); solubility ([2]; pH 6.7, Solubility Conc.): 320 µM (≈ 685 µg/mL); solubility ([2]; pH 7.1, Solubility Conc.): 489 µM (≈ 1050 µg/mL)
CC(=O)N[C@H]1CCC(=O)NC[C@@H](C(=O)N2CCC[C@H]2C(=O)N2CCC[C@H]2C(=O)N[C@@H](CCCNC(=N)N)C(=O)N[C@@H](CC(=O)O)C(=O)N[C@@H](CCCCN(CC(=O)O)CC(=O)O)C(=O)N[C@@H](CCCCNC(=O)COCCOCCNC(=O)CCCCCCCCCCCCCCCc2nnn[nH]2)C(N)=O)NC(=O)[C@H](Cc2c[nH]c3ccccc23)NC(=O)[C@H](CCCNC(=N)N)NC(=O)[C@@H](Cc2ccccc2)NC(=O)[C@H](Cc2c[nH]cn2)NC1=O [Example 6, Ac-c[Glu-His-D-Phe-Arg-Trp-Dap]-Pro-Pro-Arg-Asp-Lys(biscarboxymethyl)-Lys[(2-{2-[16-(tetrazol-5-yl)hexadecanoylamino]ethoxy}ethoxy)acetyl]-NH2] (Ac-EH[dF]RW[Dap]PPRD[Lys(CH2CO2H)2]K([AEEA-Palmitoyl(16-(5-tetrazolyl))])-NH2; lactam 1-6)	–	–	44 (≈ 95.6 µg/mL)	208 (≈ 452 µg/mL)	–	–	13	> 10000	–	290 (≈ 630 µg/mL)	254 (≈ 552 µg/mL)	solubility ([2]; pH 5.9, Solubility Conc.): 23 µM (≈ 50 µg/mL); solubility ([2]; pH 6.3, Solubility Conc.): 24 µM (≈ 52.1 µg/mL); solubility ([2]; pH 7.2, Solubility Conc.): 82 µM (≈ 178 µg/mL); solubility ([2]; pH 7.5, Solubility Conc.): 270 µM (≈ 587 µg/mL); solubility ([2]; pH 8.1, Solubility Conc.): 280 µM (≈ 608 µg/mL)
CC(=O)N[C@H]1CCNC(=O)CC[C@@H](C(=O)N2CCC[C@H]2C(=O)N2CCC[C@H]2C(=O)N[C@@H](CCCNC(=N)N)C(=O)N[C@@H](CC(=O)O)C(=O)N[C@@H](CCCCN(CC(=O)O)CC(=O)O)C(=O)N[C@@H](CCCCNC(=O)COCCOCCNC(=O)CCCCCCCCCCCCCCCc2nnn[nH]2)C(N)=O)NC(=O)[C@H](Cc2c[nH]c3ccccc23)NC(=O)[C@H](CCCNC(=N)N)NC(=O)[C@@H](Cc2ccccc2)NC(=O)[C@H](Cc2c[nH]cn2)NC1=O [Example 23, Ac-c[Dab-His-D-Phe-Arg-Trp-Glu]-Pro-Pro-Arg-Asp-Lys(biscarboxymethyl)-Lys[(2-{2-[16-(tetrazol-5-yl)hexadecanoylamino]ethoxy}ethoxy)acetyl]-NH2] (Ac-[Dab]H[dF]RWEPPRD[Lys(CH2CO2H)2]K([AEEA-Palmitoyl(16-(5-tetrazolyl))])-NH2; lactam 1-6)	34 (≈ 74.3 µg/mL)	38 (≈ 83.1 µg/mL)	45 (≈ 98.4 µg/mL)	145 (≈ 317 µg/mL)	295 (≈ 645 µg/mL)	–	107	> 10000	–	229 (≈ 501 µg/mL)	–	solubility ([2]; pH 4.7, Solubility Conc.): 73 µM (≈ 160 µg/mL); solubility ([2]; pH 7.2, Solubility Conc.): 76 µM (≈ 166 µg/mL); solubility ([2]; pH 7.9, Solubility Conc.): 300 µM (≈ 656 µg/mL)
